Here are results for seven molecules from ChEMBL document CHEMBL1201862, “PubChem BioAssay data set” (2004).

SMILES strings stand for the structures. The source made the active and inactive calls.

For test [1], the target named is Tyrosyl-DNA phosphodiesterase 2 (Homo sapiens, UniProt O95551). The test is described as follows: potency against TDP2 phosphodiesterase activity – biochemical, epi absorbance, IC50, dose response (AID 743297).
Test [2] concerns the target T1, E3 ubiquitin-protein ligase XIAP (Homo sapiens, UniProt P98170). The test is described as follows: small molecules displacing peptide from XIAP – biochemical, IAP family, fluorescence polarization (AID 1018). It counts as functional. Background: Polarisation of emitted light reports the rotation of a fluorescent probe.
Test [3] addresses T1, E3 ubiquitin-protein ligase XIAP. The test is described as follows: Counter Screen using XIAP-Bir3 for Chemical Antagonists of Bir1/2 domains of IAP-family anti-apoptotic proteins. [Related pubchem assays (depositor defined):AID1018, AID1449, AID1514, AID1638, AID1749, AID1750, AID488957, AID488963].
Test [4] relates to BJ. The test is described as follows: BJ-TERT-LT-ST fibroblast viability loss – cell-based, RAS-independent, luminescence, dose response (AID 1935).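 Also: BJ fibroblasts immortalized with TERT plus LT and ST oncogenes.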 It is filed as functional. The conditions noted are these: Homo sapiens.
Test [5] concerns HEK293. The test is described as follows: cells. It counts as functional, cell-based. The settings on record: Homo sapiens.
For test [6], the target named is Luciferin 4-monooxygenase (Photinus pyralis, UniProt P08659). In words: Counter Screen for Luciferase-based Assay Positives. [Related pubchem assays: 620, 618, 411 ].
Sequence of Luciferin 4-monooxygenase (P08659 whole entry): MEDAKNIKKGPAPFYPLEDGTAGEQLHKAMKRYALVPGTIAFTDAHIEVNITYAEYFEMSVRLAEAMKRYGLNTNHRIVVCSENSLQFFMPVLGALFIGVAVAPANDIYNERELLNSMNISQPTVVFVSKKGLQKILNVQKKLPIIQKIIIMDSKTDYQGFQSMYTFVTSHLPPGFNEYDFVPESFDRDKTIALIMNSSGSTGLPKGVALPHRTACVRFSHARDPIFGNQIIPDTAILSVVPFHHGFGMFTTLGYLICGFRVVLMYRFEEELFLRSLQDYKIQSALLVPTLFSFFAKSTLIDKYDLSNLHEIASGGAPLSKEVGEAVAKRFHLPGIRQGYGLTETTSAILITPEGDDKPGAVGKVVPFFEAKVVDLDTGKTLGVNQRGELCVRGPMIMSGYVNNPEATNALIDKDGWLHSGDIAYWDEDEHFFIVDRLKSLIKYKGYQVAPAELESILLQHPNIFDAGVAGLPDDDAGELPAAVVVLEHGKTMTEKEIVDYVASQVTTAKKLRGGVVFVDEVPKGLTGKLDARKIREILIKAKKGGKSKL
Test [7] deals with HEK293. In words: NOD2 signaling inhibitors in MDP-stimulated cells, cell-based, uHTS, luminescence (AID 2001). The conditions noted are these: Homo sapiens. It is filed as functional.
For another test, the system named is HT-1080. The test is described as follows: HT1080 cell viability loss – fluorescence readout (AID 620). It counts as functional, cell-based. The settings on record: Homo sapiens.
Another test concerns the target T2, Protein RecA (Mycobacterium tuberculosis, UniProt P9WHJ3).
T2 sequence (P9WHJ3 whole entry): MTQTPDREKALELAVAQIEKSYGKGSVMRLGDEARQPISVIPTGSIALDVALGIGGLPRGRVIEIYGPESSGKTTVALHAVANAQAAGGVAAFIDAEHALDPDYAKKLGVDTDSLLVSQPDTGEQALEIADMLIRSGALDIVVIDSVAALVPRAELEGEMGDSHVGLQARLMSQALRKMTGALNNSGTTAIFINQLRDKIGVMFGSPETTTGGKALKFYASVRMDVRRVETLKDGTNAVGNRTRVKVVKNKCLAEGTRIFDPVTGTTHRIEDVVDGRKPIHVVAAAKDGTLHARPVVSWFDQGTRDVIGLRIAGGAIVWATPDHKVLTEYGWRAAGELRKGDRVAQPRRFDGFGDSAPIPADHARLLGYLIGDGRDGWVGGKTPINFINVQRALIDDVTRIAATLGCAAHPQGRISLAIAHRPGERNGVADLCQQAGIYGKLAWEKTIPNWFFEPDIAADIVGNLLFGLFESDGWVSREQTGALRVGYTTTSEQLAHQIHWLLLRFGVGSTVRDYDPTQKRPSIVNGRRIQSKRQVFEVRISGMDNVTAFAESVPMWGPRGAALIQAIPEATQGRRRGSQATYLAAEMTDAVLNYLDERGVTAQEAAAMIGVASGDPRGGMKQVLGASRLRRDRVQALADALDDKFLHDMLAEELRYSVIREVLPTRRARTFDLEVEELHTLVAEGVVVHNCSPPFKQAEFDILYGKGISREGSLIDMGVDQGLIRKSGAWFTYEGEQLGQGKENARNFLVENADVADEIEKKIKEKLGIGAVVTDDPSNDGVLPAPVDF
In words: Fluorescence Cell-Free Homogeneous Dose Retest to Identify Inhibitors of RecA-Intein Splicing Activity. [Related pubchem assays (depositor defined):AID2097, AID2223, AID489010, AID492950]. It is filed as functional.

The test system of test [8] is HEK293. In words: cells. It is filed as functional, cell-based. The conditions noted are these: Homo sapiens. The source holds these as a separate data set.
The subject of test [9] is BJ. The test is described as follows: BJ-TERT fibroblast viability loss – cell-based, RAS-independent, luminescence, dose response (AID 1933). It is filed as functional. The conditions noted are these: Homo sapiens.
Test [10] deals with BJ. The test is described as follows: cells. It counts as functional, cell-based. The conditions noted are these: Homo sapiens.
The subject of test [11] is HEK293. In words: inhibition of NOD1-driven NF-kB reporter – cell-based, luminescence, uHTS, primary screen (AID 1578). It counts as functional. The settings on record: Homo sapiens.
Test [12] can be described thus: DRD fibroblast viability loss – cell-based, non-viral oncogenic, luminescence, dose response (AID 1934). It is filed as functional. The conditions noted are these: Homo sapiens.
The nature of test [13]: reduced cellular PGC1a acetyl-lysine signal – cell-based, cherry-picked samples, dose response (AID 720514).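 Also: potency may reflect raised or lowered acetylation signal.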 It is filed as functional.
Test [14] deals with BJ. The test is described as follows: growth inhibition of engineered Ras-driven BJ cells – cell-based, alamar blue fluorescence, cherrypicked samples, dose response (AID 2631).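 Also: confirmatory dose-response assay in RAS-dependent BJ fibroblasts engineered with TERT, LT and ST, with cytotoxicity read by fluorescence.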 The conditions noted are these: Homo sapiens. It is filed as functional. In general terms: The colour change of resazurin is a common sign of viable cells or microbes.
The target in test [15] is T3, Replicative DNA helicase DnaB (Mycobacterium tuberculosis, UniProt P9WMR3).
T3 sequence (P9WMR3 whole entry): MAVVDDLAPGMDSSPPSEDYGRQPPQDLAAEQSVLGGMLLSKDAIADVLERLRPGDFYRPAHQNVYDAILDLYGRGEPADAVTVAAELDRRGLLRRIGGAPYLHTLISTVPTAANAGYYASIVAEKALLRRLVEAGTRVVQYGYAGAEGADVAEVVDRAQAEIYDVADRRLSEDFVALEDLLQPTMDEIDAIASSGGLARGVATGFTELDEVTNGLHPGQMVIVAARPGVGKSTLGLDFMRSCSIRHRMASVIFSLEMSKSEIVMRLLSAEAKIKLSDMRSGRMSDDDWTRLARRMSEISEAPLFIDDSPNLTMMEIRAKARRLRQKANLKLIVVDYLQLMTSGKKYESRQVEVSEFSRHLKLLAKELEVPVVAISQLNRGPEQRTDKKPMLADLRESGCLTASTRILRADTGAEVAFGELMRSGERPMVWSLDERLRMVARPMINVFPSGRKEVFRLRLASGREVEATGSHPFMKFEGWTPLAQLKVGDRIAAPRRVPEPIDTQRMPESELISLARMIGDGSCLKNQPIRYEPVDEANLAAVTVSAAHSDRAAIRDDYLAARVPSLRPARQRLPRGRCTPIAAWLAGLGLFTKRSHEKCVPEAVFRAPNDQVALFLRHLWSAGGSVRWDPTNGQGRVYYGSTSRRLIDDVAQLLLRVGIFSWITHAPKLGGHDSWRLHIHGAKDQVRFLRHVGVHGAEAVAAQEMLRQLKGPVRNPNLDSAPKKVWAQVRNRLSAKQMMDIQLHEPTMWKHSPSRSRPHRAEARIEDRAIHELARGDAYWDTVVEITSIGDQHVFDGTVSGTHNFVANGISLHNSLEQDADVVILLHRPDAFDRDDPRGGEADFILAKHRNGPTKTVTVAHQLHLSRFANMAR
In words: DnaB intein splicing inhibitors, dose response, biochemical, cell-free fluorescence (AID 449749). It counts as functional.

A short description of test [16]: microbe, parasite or virus in culture. It is filed as functional. The settings on record: Mycobacterium tuberculosis.
The nature of test [17]: Late stage assay provider results from the probe development effort to identify inhibitors of the Plasmodium falciparum M18 Aspartyl Aminopeptidase (M18AAP): radiolabel-based cell-based dose response assay to identify compounds that inhibit P. falciparum growth in RBCs, Set 2.. It is filed as functional.
Test [18] deals with G-protein coupled receptor 183 (Homo sapiens, UniProt P32249). The test is described as follows: SAR confirmation of small molecule antagonists of the EBI2 receptor via a luminescent beta-arrestin assa. It counts as functional.
Sequence of G-protein coupled receptor 183 (P32249 whole entry): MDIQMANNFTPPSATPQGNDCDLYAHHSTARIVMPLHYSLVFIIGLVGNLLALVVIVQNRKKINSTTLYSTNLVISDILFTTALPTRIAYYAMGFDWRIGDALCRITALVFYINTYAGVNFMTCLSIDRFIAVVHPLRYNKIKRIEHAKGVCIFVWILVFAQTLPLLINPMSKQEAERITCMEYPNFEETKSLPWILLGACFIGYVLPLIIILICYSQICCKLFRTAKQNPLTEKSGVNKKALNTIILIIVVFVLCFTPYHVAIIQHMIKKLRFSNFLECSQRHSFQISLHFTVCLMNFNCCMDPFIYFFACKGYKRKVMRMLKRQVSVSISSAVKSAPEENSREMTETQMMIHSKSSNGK
A short description of test [19]: P. falciparum Dd2 growth inhibitors, dose response, SYBR Green, cherry-picked samples (AID 1159567). It is filed as functional, cell-based.
Test [20] can be described thus: growth inhibition of yeast DHODH-expressing 3D7 parasites – SYBR Green, dry powder samples, dose response (AID 1159570).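 Also: parasite growth measured after 72 hours of compound exposure.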 It is filed as functional, cell-based.
Test [21] in a line: toxicity to human HepG2 hepatoma cells – cell-based, plate reader, dry powder samples, cytotoxicity control, dose response (AID 1159569).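 Also: inhibitor potency with signal falling toward the positive control level.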 It counts as functional.
A short description of test [22]: A549 cell cytotoxicity, dose response, cytotoxicity control, plate reader, cherry-pick, antagonist series (AID 743412). It counts as functional, cell-based.
Test [23] can be described thus: Dd2 parasite growth inhibition in erythrocytes – SYBR Green, dry powder samples, set 9, dose response (AID 1159568). It is filed as functional, cell-based.
The nature of test [24]: Dd2 malaria parasite growth inhibition potency – SYBR Green, dry powder samples, dose response (AID 1159566).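 Also: potency for growth inhibition with lower SYBR green DNA signal.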 It is filed as functional, cell-based.
A short description of test [25]: viability loss in HEK293 cells – cell-based, plate reader, cherry-picked samples, cytotoxicity control, dose response (AID 743446). It is filed as functional.
Test [26] is described as follows: blockers of bursicon-stimulated LGR2 cAMP reporter – cell-based, HEK293, CRE-luciferase reporter, cherry pick, set 2, dose response (AID 743343).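 Also: transfected cells were stimulated with diluted bursicon conditioned medium after compound addition.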 It is filed as functional. (In a reporter assay the amount or activity of a reporter protein is the signal.)
Test [27] can be described thus: growth inhibition of PfATP4-mutant resistant parasites – NITD609-resistant line, SYBR Green, dry powder, dose response (AID 1159571).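 Also: parasites synchronized at ring stage by sorbitol before testing.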 It counts as functional, cell-based.
Test [28] can be described thus: toxicity toward HepG2 liver cells – cell-based, plate reader, cherry-pick, antagonist series, cytotoxicity control, dose response (AID 743416). It counts as functional.
Test [29] is described as follows: blockade of melanocortin 4 receptor signaling – cell-based, plate reader, cherry pick, counter-screen for LGR2 antagonist project, dose response (AID 743444).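 Also: transfected HEK 293 cells stimulated with alpha-MSH peptide; potency of inhibitors of the alpha-MSH evoked signal.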 It counts as functional.
In another test the target is Caspase-6 (Homo sapiens, UniProt P55212). In words: inhibition of CASP6 peptide cleavage – biochemical, VEID-R110 fluorescence, cherry-pick, dose response (AID 720632).
Sequence of Caspase-6 (P55212 24-179 limits assumed): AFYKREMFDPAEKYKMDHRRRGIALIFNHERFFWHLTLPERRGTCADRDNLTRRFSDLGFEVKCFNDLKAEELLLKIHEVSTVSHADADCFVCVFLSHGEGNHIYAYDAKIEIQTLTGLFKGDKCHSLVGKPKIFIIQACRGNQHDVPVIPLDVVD
Sequence of Caspase-6 (P55212 194-293 limits assumed): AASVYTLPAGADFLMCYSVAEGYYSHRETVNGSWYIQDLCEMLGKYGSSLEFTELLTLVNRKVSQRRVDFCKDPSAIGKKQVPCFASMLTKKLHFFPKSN
A short description of test [30]: inhibition of ADAM10 peptide cleavage – biochemical, FRET peptide substrate, recombinant human ADAM10, selectivity assay for ADAM17 exosite inhibitor project, dose response (AID 743259).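 Also: ADAM10 enzyme cleaving a FRET peptide substrate.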
Test [31] concerns the target Disintegrin and metalloproteinase domain-containing protein 17 (Homo sapiens, UniProt P78536). In words: exosite inhibitors of ADAM17, dose response, biochemical (AID 743260).

T1 sequence (P98170 whole entry): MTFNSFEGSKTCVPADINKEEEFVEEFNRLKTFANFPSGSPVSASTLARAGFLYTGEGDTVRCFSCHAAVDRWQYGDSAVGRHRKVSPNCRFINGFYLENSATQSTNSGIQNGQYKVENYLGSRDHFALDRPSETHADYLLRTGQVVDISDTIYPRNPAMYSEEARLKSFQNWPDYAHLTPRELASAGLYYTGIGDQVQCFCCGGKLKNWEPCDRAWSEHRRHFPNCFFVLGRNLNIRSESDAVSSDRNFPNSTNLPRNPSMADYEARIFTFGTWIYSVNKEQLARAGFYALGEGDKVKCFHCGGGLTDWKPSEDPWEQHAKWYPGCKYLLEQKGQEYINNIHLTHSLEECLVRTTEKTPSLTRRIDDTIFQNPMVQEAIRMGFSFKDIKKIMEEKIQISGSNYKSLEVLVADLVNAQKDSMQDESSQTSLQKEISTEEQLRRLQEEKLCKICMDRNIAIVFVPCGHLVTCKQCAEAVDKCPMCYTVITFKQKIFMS
Sequence of Disintegrin and metalloproteinase domain-containing protein 17 (P78536 whole entry, the tested form may be a part): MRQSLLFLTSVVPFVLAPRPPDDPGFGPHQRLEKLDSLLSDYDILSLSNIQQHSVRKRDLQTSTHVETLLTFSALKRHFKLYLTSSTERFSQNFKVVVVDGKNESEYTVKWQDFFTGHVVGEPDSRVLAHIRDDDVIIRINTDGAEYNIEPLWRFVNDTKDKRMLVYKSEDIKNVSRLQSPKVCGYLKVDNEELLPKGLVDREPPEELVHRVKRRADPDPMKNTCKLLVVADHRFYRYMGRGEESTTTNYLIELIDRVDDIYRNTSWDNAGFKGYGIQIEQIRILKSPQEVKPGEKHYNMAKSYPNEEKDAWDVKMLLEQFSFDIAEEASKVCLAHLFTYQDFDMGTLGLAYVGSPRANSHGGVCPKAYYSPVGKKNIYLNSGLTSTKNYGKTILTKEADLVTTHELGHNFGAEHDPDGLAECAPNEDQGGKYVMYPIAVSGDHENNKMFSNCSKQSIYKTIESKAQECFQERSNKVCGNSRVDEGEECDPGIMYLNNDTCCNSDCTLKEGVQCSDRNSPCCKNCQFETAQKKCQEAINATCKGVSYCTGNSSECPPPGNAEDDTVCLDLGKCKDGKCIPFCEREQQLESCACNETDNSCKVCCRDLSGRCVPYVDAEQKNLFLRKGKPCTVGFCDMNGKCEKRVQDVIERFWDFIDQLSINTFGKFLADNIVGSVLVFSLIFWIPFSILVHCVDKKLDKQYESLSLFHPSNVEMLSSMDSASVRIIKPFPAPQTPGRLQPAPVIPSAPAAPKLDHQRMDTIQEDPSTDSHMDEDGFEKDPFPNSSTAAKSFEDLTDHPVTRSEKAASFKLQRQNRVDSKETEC
Sequence of Tyrosyl-DNA phosphodiesterase 2 (O95551 whole entry): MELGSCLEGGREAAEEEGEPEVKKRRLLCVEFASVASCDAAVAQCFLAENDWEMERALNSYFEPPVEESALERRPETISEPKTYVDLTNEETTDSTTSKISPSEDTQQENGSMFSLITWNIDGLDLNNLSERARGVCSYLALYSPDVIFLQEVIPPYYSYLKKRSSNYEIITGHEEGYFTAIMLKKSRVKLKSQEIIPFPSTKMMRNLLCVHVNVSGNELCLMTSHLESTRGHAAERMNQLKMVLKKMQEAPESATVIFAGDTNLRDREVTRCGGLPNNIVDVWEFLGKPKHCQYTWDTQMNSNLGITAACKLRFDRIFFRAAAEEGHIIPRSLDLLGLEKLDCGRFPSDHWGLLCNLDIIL

The term IC50 denotes the concentration needed to halve the response being measured. Regarding `COc1ccc(-c2[nH]nc(O)c2NC(=O)c2ccc(C)cc2)cc1`, the IC50 in [1] is > 128 µM (inactive).
For orientation: EC50 means the concentration giving half of the maximal effect. Broadly, the AC50 is the midpoint of the concentration-response curve, whichever way the signal moves. Take `O=S(=O)(c1ccc(Cl)cc1)c1snnc1-c1ccccc1`: the IC50 was > 100 µM (not active) in test [2]; > 100 µM (inactive) in [3]; > 20 µM (inactive) with HEK293 [5]; 6.92 µM (inactive) with HEK293 [7]; 2.17 µM (active) with HEK293 [8]. For the same molecule, the EC50 in the test with BJ [4] was 3.25 µM (inconclusive); in test [6], 3.73 µM (active); with HT-1080, 20.7 µM (active); on Protein RecA, 9.19 µM (active); with BJ [9], 2.39 µM (active); in the test with BJ [10] it was 3.53 µM (active). The EC50 is 10.7 µM (active) in the test with HEK293 [11], 4.96 µM (active) in [12] and 0.51 µM (active) in the test on BJ [14]. For the same molecule, the AC50 is 7.86 µM (active) in test [13] and 23.9 µM (active) in test [15]. The CC50 in [16] is 2.44 µM (active).
As to `COc1cccc(CCNc2c3ccccc3nc3ccccc23)c1`, in [17], the IC50 is 0.6 µM (active).
`O=C(CCCc1ccc(Br)cc1)N1CCN(C(=O)c2ccc(Cl)cc2)CC1`: in [18], the IC50 was > 1 µM (inactive).
Regarding `COc1ccccc1C#Cc1ccc([C@H]2[C@@H](C#N)N(C(=O)C3CCCCC3)[C@H]2CO)cc1`, the AC50 in test [19] is 1.19 µM (active); in test [20], 0.862 µM (active); in test [21] it was 29.8 µM (active); in [22], 21.3 µM (active); in [23], 1.17 µM (active); in test [24], 0.349 µM (active). For the same molecule, the AC50 was 14.9 µM (active) in [25]; 11.3 µM (active) in test [26]; 0.443 µM (active) in [27]; 30.5 µM (active) in test [28]; 7.87 µM (active) in test [29].
Take `Cc1ccc(Sc2ccc(S(=O)(=O)Nc3ccc(CC(=O)O)cc3)cc2)cc1C`: the AC50 on Caspase-6 is 49.3 µM (active).
As to `COc1ccc(Cn2cc(CN3CCS(=O)(=O)N(Cc4ccc(-c5cccc(Cl)c5)cc4)C(C)C3=O)nn2)cc1` (centres undefined), the IC50 in test [30] and in test [31] was > 69.5 µM (inactive) in each case.
